Assay results published in patent publication US10696691B2, “BACE1 inhibitors” (Hoffmann-La Roche Inc., priority 2015, dated 2020).

Experiments:
Aβ40 = assay: Lowering of Aβ40 in brain of wild-type mice; assay type: in vivo; settings: female C57Bl/6J mice, 30 mg/kg per os, 4 h, brain Aβ40 as percentage of the vehicle group; for response vs control in vivo at 30 mg/kg: Mus musculus, po, read-out: Aβ40 (wt mice, brain)
Protocol: Lowering of Aβ40 in Brain of Wild-Type Mice:
Animals and Housing Conditions.
Animals were maintained in a 12/12 h light/dark cycle, with lights starting at 6 a.m., and experiments were conducted during the light phase, Animal housing and experimental procedures were in line with ethical and legal guidelines and were authorized by local veterinary authorities.
Female C57Bl/6J mice were treated with a dose of 30 mg/kg of the compounds, 3-4 animals per treatment group. The test compound was dissolved in 5% EtOH, 10% Solutol, and was applied per os at 10 mL/kg. After 4 h, the animals were sacrificed and brain and plasma were collected. The brain was cut into halves and immediately frozen on dry ice. Brain was used for measurement of Aβ40 and plasma was used for determination of compound exposure. […] Brain tissue was homogenized in 2% DEA buffer in a Roche MagnaLyser (20″, 4000 rpm) and subsequently centrifuged for 1 h at 100000 g. DEA was reduced to 0.2% in 50 mM NaCl and one-half of the DEA lysate was passed over an Oasis Solid phase extraction plate (Waters; cat. no. 186000679), which had been activated with MeOH and equilibrated in dH2O (1 mL each). After washes in 10% and 30% MeOH (1 mL each), the Aβ-peptides were eluted in 0.8 mL of 2% NH4OH in 90% MeOH. The eluate was dried over a N2 flow, and the dried sample was reconstituted in 30 μL of AlphaLISA assay buffer. Aβ40 was determined by an AlphaLISA assay (Perkin-Elmer). In a white 96-well, half area microplate (Perkin-Elmer cat. no. 6005561), 20 μL of the reconstituted sample were mixed with 5 μL of biotinylated BAP-24 (specific for C-terminus of Aβ40) (Brockhaus, M.; Onmberg, J.; Rohrig, S.; Loetscher, H.; Wittenburg, N.; Baumeister, R.; Jacobsen, H.; Haass, C. Caspasemediated cleavage is not required for the activity of presenilins in amyloidogenesis and NOTCH signaling. NeuroReport 1998, 9, 1481-1486.) stock=4.4 mg/mL, f.c.5.5 μg/mL), and 5 μL 252Q6 acceptor beads (252Q6 antibody, Invitrogen AMB0062) had been previously conjugated with AlphaLISA Acceptor beads (Perkin-Elmer cat. no. 6772002); final dilution 1:500). The mix was incubated for 1 h at RT in the dark. Then 20 μL of Streptavin-coated Donor Beads (Perkin-Elmer cat. no. 6760002, final dilution 1:125) were added and this final mix was incubated in the dark for another 30 min at RT before RFU was measured in an AlphaScreen Reader (Perkin-Elmer Envision 2104). The value obtained for A40 in the treated animals was related to the value in the vehicle group and is given in %. Alternatively a commercial ELISA was used for Aβ40 determination (Wako ELISA: (“Human/Rat 3 Amyloid (40) ELISA kit Wako II”; cat nr. 294-64701) following the manufacture's instruction. Also here the Aβ-lowering efficacy was calculated as percentage of the vehicle group.

BACE1 = target: T1, BACE1 (Homo sapiens, UniProt P56817); assay: Cellular Aβ-lowering assay (Abeta 40 AlphaLISA, HEK293 APP cells); assay type: cell-based; settings: 18-20 hrs incubation, Aβ 40 in culture supernatants, read-out: BACE1 cell act. Aβ40 IC50
T1 construct: endogenous in cells; host or cells: HEK293 APP cells
Protocol: Cellular Aβ-Lowering Assay:
The Abeta 40 AiphaLISA Assay can be used. The HEK293 APP cells were seeded in 96 well Microtiter plates in cell culture medium (Iscove's, plus 10% (v/v) fetal bovine serum, penicillin/streptomycin) to about 80% confluency and the compounds were added at a 3× concentration in ⅓ volume of culture medium (final DMSO concentration was kept at 1% v/v). After 18-20 hrs incubation at 37° C. and 5% CO2 in a humidified incubator, the culture supernatants were harvested for the determination of Aβ 40 concentrations using Perkin-Elmer Human Amyloid beta 1-40 (high specificity) Kit (Cat # AL275C).
In a Perkin-Elmer White Optiplate-384 (Cat #6007290), 2 ul culture supernatants were combined with 2 μl of a 10× AlphaLISA Anti-hABAcceptor beads+Biotinylated Antibody Anti-AD 1-40 Mix (50 μg/mL/5 nM). After 1 hour room temperature incubation, 16 μl of a 1.25× preparation of Streptavidin (SA) Donor beads (25 μg/mL) were added and incubated for 30 minutes in the Dark. Light Emission at 615 nm was then recorded using EnVision-Alpha Reader. Levels of Aβ 40 in the culture supernatants were calculated as percentage of maximum signal (cells treated with 1% DMSO without inhibitor). The IC50 values were calculated using the Excel XLfit software.

T1 sequence (P56817 46-501): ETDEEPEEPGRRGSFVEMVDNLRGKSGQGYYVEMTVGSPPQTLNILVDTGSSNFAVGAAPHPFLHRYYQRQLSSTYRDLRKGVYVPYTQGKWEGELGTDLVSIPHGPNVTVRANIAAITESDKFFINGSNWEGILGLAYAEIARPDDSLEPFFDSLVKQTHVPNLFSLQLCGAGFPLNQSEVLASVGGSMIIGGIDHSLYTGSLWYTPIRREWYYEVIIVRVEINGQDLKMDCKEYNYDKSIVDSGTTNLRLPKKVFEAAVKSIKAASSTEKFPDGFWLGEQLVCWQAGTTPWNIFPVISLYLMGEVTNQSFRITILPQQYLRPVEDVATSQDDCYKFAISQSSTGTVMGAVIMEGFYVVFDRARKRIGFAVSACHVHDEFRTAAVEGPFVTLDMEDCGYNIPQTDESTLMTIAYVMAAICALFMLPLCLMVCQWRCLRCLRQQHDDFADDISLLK

| Compound | response vs control in vivo at 30 mg/kg (Aβ40) | IC50 (BACE1) | Aβ40 (wt mice, brain) (Aβ40) |
| --- | --- | --- | --- |
| CCOc1cnc(C(=O)Nc2ccc(F)c([C@@]3(C)N=C(N)C(C)(C)[S@@]4(=O)=NCC[C@@H]34)c2)cn1 [Example 27AB, N-(3-((3aS,4R,8R)-6-amino-4,7,7-trimethyl-8-oxido-3,3a,4,7-tetrahydro-2H-isothiazolo[1,5-a][1,4]thiazin-4-yl)-4-fluorophenyl)-5-ethoxypyrazine-2-carboxamide] | 9% | 0.4 nM |  |
| CCOc1ccc(C(=O)Nc2ccc(F)c([C@@]3(C)N=C(N)C(C)(C)[S@@]4(=O)=NCC[C@@H]34)c2)nc1 [Example 25AB, N-(3-((3aS,4R,8R)-6-amino-4,7,7-trimethyl-8-oxido-3,3a,4,7-tetrahydro-2H-isothiazolo[1,5-a][1,4]thiazin-4-yl)-4-fluorophenyl)-5-ethoxypicolinamide] | 40% | 0.5 nM |  |
| CC1(C)C(N)=N[C@](C)(c2cc(NC(=O)c3cnc(OC(F)F)cn3)ccc2F)[C@@H]2CCN=[S@@]21=O [Example 15AB, N-(3-((3aS,4R,8R)-6-amino-4,7,7-trimethyl-8-oxido-3,3a,4,7-tetrahydro-2H-isothiazolo[1,5-a][1,4]thiazin-4-yl)-4-fluorophenyl)-5-(difluoromethoxy)pyrazine-2-carboxamide] | 20% | 0.2 nM |  |
| CC1(C)C(N)=N[C@](C)(c2cc(NC(=O)c3ccc(C#N)cc3Cl)ccc2F)[C@@H]2CCN=[S@@]21=O [Example 4AB, N-(3-((3aS,4R,8R)-6-amino-4,7,7-trimethyl-8-oxido-3,3a,4,7-tetrahydro-2H-isothiazolo[1,5-a][1,4]thiazin-4-yl)-4-fluorophenyl)-2-chloro-4-cyanobenzamide] | 102% | 13.1 nM |  |
| COc1cnc(C(=O)Nc2ccc(F)c([C@@]3(C)N=C(N)C(C)(C)[S@@]4(=O)=NCC[C@@H]34)c2)cn1 [Example 14AB, N-(3-((3aS,4R,8R)-6-amino-4,7,7-trimethyl-8-oxido-3,3a,4,7-tetrahydro-2H-isothiazolo[1,5-a][1,4]thiazin-4-yl)-4-fluorophenyl)-5-methoxypyrazine-2-carboxamide] | 3% | 0.5 nM |  |
| CC1(C)C(N)=N[C@](C)(c2cc(NC(=O)c3ccc(F)cn3)ccc2F)[C@@H]2CCN=[S@@]21=O [Example 17AB, N-(3-((3aS,4R,8R)-6-amino-4,7,7-trimethyl-8-oxido-3,3a,4,7-tetrahydro-2H-isothiazolo[1,5-a][1,4]thiazin-4-yl)-4-fluorophenyl)-5-fluoropicolinamide] | 40% | 0.3 nM |  |
| COc1cnc(C(=O)Nc2ccc(F)c([C@@]3(C)N=C(N)C(C)(C)[S@@]4(=O)=NCC[C@@H]34)c2)c(C)c1 [Example 26AB, N-(3-((3aS,4R,8R)-6-amino-4,7,7-trimethyl-8-oxido-3,3a,4,7-tetrahydro-2H-isothiazolo[1,5-a][1,4]thiazin-4-yl)-4-fluorophenyl)-5-methoxy-3-methylpicolinamide] | 11% | 0.6 nM |  |
| CC1(C)C(N)=N[C@](C)(c2cc(NC(=O)c3ncc(OC(F)F)cc3Cl)ccc2F)[C@@H]2CCN=[S@@]21=O [Example 13AB, N-(3-((3aS,4R,8R)-6-amino-4,7,7-trimethyl-8-oxido-3,3a,4,7-tetrahydro-2H-isothiazolo[1,5-a][1,4]thiazin-4-yl)-4-fluorophenyl)-3-chloro-5-(difluoromethoxy)picolinamide] | 39% | 0.3 nM |  |
| CC1(C)C(N)=N[C@](C)(c2cc(NC(=O)c3cnc(OCC(F)(F)C(F)F)cn3)ccc2F)[C@@H]2CCN=[S@@]21=O [Example 22AB, N-(3-((3aS,4R,8R)-6-amino-4,7,7-trimethyl-8-oxido-3,3a,4,7-tetrahydro-2H-isothiazolo[1,5-a][1,4]thiazin-4-yl)-4-fluorophenyl)-5-(2,2,3,3-tetrafluoropropoxy)pyrazine-2-carboxamide] |  | 0.2 nM | 51% |
| CC1(C)C(N)=N[C@](C)(c2cc(NC(=O)c3ncc(C#N)cc3Cl)ccc2F)[C@@H]2CCN=[S@@]21=O [Example 2AB, N-(3-((3aS,4R,8R)-6-amino-4,7,7-trimethyl-8-oxido-3,3a,4,7-tetrahydro-2H-isothiazolo[1,5-a][1,4]thiazin-4-yl)-4-fluorophenyl)-3-chloro-5-cyanopicolinamide] | 80% | 1 nM |  |
| Cc1cc(C#N)cnc1C(=O)Nc1ccc(F)c([C@@]2(C)N=C(N)C(C)(C)[S@@]3(=O)=NCC[C@@H]23)c1 [Example 1AB, N-(3-((3aS,4R,8R)-6-amino-4,7,7-trimethyl-8-oxido-3,3a,4,7-tetrahydro-2H-isothiazolo[1,5-a][1,4]thiazin-4-yl)-4-fluorophenyl)-5-cyano-3-methylpicolinamide] | 14% | 0.09 nM |  |
